# Test results as given in the supplement of paper PMC10307832.
# How the values were obtained:
# Test in all cases: relative viability (nuclei count vs DMSO), 5 days (fraction); higher = more cells survive
# A-427 = tested on: A-427
# How it was run: (§1)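 One day after seeding in 1536-well plates, lung cancer cell lines were dosed by pin tool. Dosing was either single-drug or a fixed anchor-drug dose plus five library-drug doses (not always all listed) in √10 steps. After 5 days, nuclei were stained in one fix-and-stain step and counted on 4× images, and relative viability is the nuclei count of treated wells over that of vehicle wells, given as the median of duplicate plates.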
# ABC-1 = tested on: ABC-1
# How it was run: as §1
# BEN = tested on: BEN
# How it was run: as §1
# COR-L23 = tested on: COR-L23
# How it was run: as §1
# EKVX = tested on: EKVX
# How it was run: as §1
# HCC-78 = tested on: HCC-78
# How it was run: as §1
# HOP-62 = tested on: HOP-62
# How it was run: as §1
# LC-2-ad = tested on: LC-2-ad
# How it was run: as §1
# LOU-NH91 = tested on: LOU-NH91
# How it was run: as §1
# LXF-289 = tested on: LXF-289
# How it was run: as §1
# NCI-H1650 = tested on: NCI-H1650
# How it was run: as §1
# NCI-H1734 = tested on: NCI-H1734
# How it was run: as §1
# NCI-H1793 = tested on: NCI-H1793
# How it was run: as §1
# NCI-H1993 = tested on: NCI-H1993
# How it was run: as §1
# NCI-H2023 = tested on: NCI-H2023
# How it was run: as §1
# NCI-H2347 = tested on: NCI-H2347
# How it was run: as §1
# NCI-H358 = tested on: NCI-H358
# How it was run: as §1
# NCI-H441 = tested on: NCI-H441
# How it was run: as §1
# NCI-H520 = tested on: NCI-H520
# How it was run: as §1
# NCI-H522 = tested on: NCI-H522
# How it was run: as §1
# NCI-H596 = tested on: NCI-H596
# How it was run: as §1
# SW 1573 = tested on: SW 1573
# How it was run: as §1
structure (smiles),measurement,setting,value
C=C1C(=O)O[C@@H](CCCCCCCC)[C@@H]1C(=O)O [C-75] + Cc1nc(Nc2ncc(C(=O)Nc3c(C)cccc3Cl)s2)cc(N2CCN(CCO)CC2)n1 [Dasatinib] (partner 0.075 µM),relative viability,A-427; first compound 0.08 µM,0.689
same,relative viability,A-427; first compound 0.253 µM,0.661
same,relative viability,A-427; first compound 0.8 µM,0.645
same,relative viability,A-427; first compound 2.53 µM,0.605
same,relative viability,A-427; first compound 8 µM,0.658
same,relative viability,ABC-1; first compound 0.08 µM,0.729
same,relative viability,ABC-1; first compound 0.253 µM,0.613
same,relative viability,ABC-1; first compound 0.8 µM,0.566
same,relative viability,ABC-1; first compound 2.53 µM,0.585
same,relative viability,ABC-1; first compound 8 µM,0.388
same,relative viability,BEN; first compound 0.08 µM,0.317
same,relative viability,BEN; first compound 0.253 µM,0.271
same,relative viability,BEN; first compound 0.8 µM,0.326
same,relative viability,BEN; first compound 8 µM,0.288
same,relative viability,COR-L23; first compound 0.08 µM,0.518
same,relative viability,COR-L23; first compound 0.253 µM,0.532
same,relative viability,COR-L23; first compound 0.8 µM,0.489
same,relative viability,COR-L23; first compound 2.53 µM,0.328
same,relative viability,COR-L23; first compound 8 µM,0.48
same,relative viability,EKVX; first compound 0.08 µM,0.535
same,relative viability,EKVX; first compound 0.253 µM,0.584
same,relative viability,EKVX; first compound 0.8 µM,0.564
same,relative viability,EKVX; first compound 8 µM,0.481
same,relative viability,HCC-78; first compound 0.08 µM,0.418
same,relative viability,HCC-78; first compound 0.253 µM,0.469
same,relative viability,HCC-78; first compound 0.8 µM,0.341
same,relative viability,HCC-78; first compound 2.53 µM,0.274
same,relative viability,HCC-78; first compound 8 µM,0.347
same,relative viability,HOP-62; first compound 0.08 µM,0.642
same,relative viability,HOP-62; first compound 0.253 µM,0.499
same,relative viability,HOP-62; first compound 0.8 µM,0.6
same,relative viability,HOP-62; first compound 2.53 µM,0.603
same,relative viability,HOP-62; first compound 8 µM,0.666
same,relative viability,LC-2-ad; first compound 0.08 µM,0.491
same,relative viability,LC-2-ad; first compound 0.253 µM,0.521
same,relative viability,LC-2-ad; first compound 0.8 µM,0.468
same,relative viability,LC-2-ad; first compound 2.53 µM,0.455
same,relative viability,LC-2-ad; first compound 8 µM,0.4
same,relative viability,LOU-NH91; first compound 0.08 µM,0.605
same,relative viability,LOU-NH91; first compound 0.253 µM,0.527
same,relative viability,LOU-NH91; first compound 0.8 µM,0.492
same,relative viability,LOU-NH91; first compound 2.53 µM,0.414
same,relative viability,LOU-NH91; first compound 8 µM,0.544
same,relative viability,LXF-289; first compound 0.08 µM,0.22
same,relative viability,LXF-289; first compound 0.253 µM,0.137
same,relative viability,LXF-289; first compound 0.8 µM,0.26
same,relative viability,LXF-289; first compound 2.53 µM,0.163
same,relative viability,LXF-289; first compound 8 µM,0.22
same,relative viability,NCI-H1650; first compound 0.08 µM,0.334
same,relative viability,NCI-H1650; first compound 0.253 µM,0.359
same,relative viability,NCI-H1650; first compound 2.53 µM,0.31
same,relative viability,NCI-H1650; first compound 8 µM,0.305
same,relative viability,NCI-H1734; first compound 0.08 µM,0.525
same,relative viability,NCI-H1734; first compound 0.253 µM,0.415
same,relative viability,NCI-H1734; first compound 0.8 µM,0.465
same,relative viability,NCI-H1734; first compound 2.53 µM,0.351
same,relative viability,NCI-H1734; first compound 8 µM,0.337
same,relative viability,NCI-H1793; first compound 0.08 µM,0.399
same,relative viability,NCI-H1793; first compound 0.253 µM,0.373
same,relative viability,NCI-H1793; first compound 0.8 µM,0.32
same,relative viability,NCI-H1793; first compound 2.53 µM,0.352
same,relative viability,NCI-H1793; first compound 8 µM,0.373
same,relative viability,NCI-H1993; first compound 0.08 µM,0.568
same,relative viability,NCI-H1993; first compound 0.253 µM,0.861
same,relative viability,NCI-H1993; first compound 0.8 µM,0.475
same,relative viability,NCI-H1993; first compound 2.53 µM,0.553
same,relative viability,NCI-H1993; first compound 8 µM,0.602
same,relative viability,NCI-H2023; first compound 0.08 µM,0.639
same,relative viability,NCI-H2023; first compound 0.253 µM,0.471
same,relative viability,NCI-H2023; first compound 0.8 µM,0.458
same,relative viability,NCI-H2023; first compound 2.53 µM,0.425
same,relative viability,NCI-H2023; first compound 8 µM,0.472
same,relative viability,NCI-H2347; first compound 0.08 µM,0.367
same,relative viability,NCI-H2347; first compound 0.253 µM,0.448
same,relative viability,NCI-H2347; first compound 0.8 µM,0.25
same,relative viability,NCI-H2347; first compound 8 µM,0.32
same,relative viability,NCI-H358; first compound 0.08 µM,0.181
same,relative viability,NCI-H358; first compound 0.253 µM,0.13
same,relative viability,NCI-H358; first compound 0.8 µM,0.157
same,relative viability,NCI-H358; first compound 2.53 µM,0.151
same,relative viability,NCI-H358; first compound 8 µM,0.143
same,relative viability,NCI-H441; first compound 0.08 µM,0.545
same,relative viability,NCI-H441; first compound 0.253 µM,0.916
same,relative viability,NCI-H441; first compound 0.8 µM,0.723
same,relative viability,NCI-H441; first compound 2.53 µM,0.463
same,relative viability,NCI-H441; first compound 8 µM,0.594
same,relative viability,NCI-H520; first compound 0.08 µM,0.188
same,relative viability,NCI-H520; first compound 0.253 µM,0.206
same,relative viability,NCI-H520; first compound 0.8 µM,0.206
same,relative viability,NCI-H520; first compound 2.53 µM,0.182
same,relative viability,NCI-H520; first compound 8 µM,0.179
same,relative viability,NCI-H522; first compound 0.08 µM,0.867
same,relative viability,NCI-H522; first compound 0.253 µM,0.849
same,relative viability,NCI-H522; first compound 0.8 µM,0.784
same,relative viability,NCI-H522; first compound 8 µM,0.906
same,relative viability,NCI-H596; first compound 0.08 µM,0.764
same,relative viability,NCI-H596; first compound 0.253 µM,0.669
same,relative viability,NCI-H596; first compound 0.8 µM,0.6
same,relative viability,NCI-H596; first compound 2.53 µM,0.446
same,relative viability,NCI-H596; first compound 8 µM,0.616
same,relative viability,SW 1573; first compound 0.08 µM,0.632
same,relative viability,SW 1573; first compound 0.253 µM,0.476
same,relative viability,SW 1573; first compound 0.8 µM,0.291
same,relative viability,SW 1573; first compound 2.53 µM,0.46
same,relative viability,SW 1573; first compound 8 µM,0.295
